Counter-ions that a name gives are not always drawn. A value given as a limit tells only on which side of the number the result lay.

The experiment concerns IL-2 production. Briefly: Inhibition of IL-2 production in PHA-activated Jurkat cells (ELISA). The note with it: Homo sapiens, 20 h, PHA 2.5 μg/mL, IL-2 ELISA. Format: cell-based. On the procedure: Jurkat cells were placed in a 96 well plate (0.5 million cells per well in 1% FBS medium) then a test compound of this invention was added at different concentrations. After 10 minutes, the cells were activated with PHA (final concentration 2.5 μg/mL) and incubated for 20 hours at 37° C. under CO2. The final volume was 200 μL. Following incubation, the cells were centrifuged and the supernatants collected and stored at −70° C. prior to assaying for IL-2 production. A commercial ELISA kit (IL-2 Eli-pair, Diaclone Research, Besancon, France) was used to detect production of IL-2, from which dose response curves were obtained. The IC50 value was calculated as the concentration at which 50% of maximum IL-2 production after stimulation was inhibited versus a non-stimulation control.
Background: An ELISA detects its analyte on a solid surface through an enzyme-linked reagent.
The IC50 is the concentration that gives 50% inhibition. A low value points to greater potency in that assay. `Cc1ccc(-c2ncco2)cc1-c1ccc(NC(=O)[C@@H](N)C(C)C)cc1` (stereo in doubt) [Compound 123, 2-Amino-3-methyl-N-(2′-methyl-5′-oxazol-2-yl-biphenyl-4-yl)-butyramide] registered an IC50 of over 500 nM.
Regarding `CC(=O)Nc1ccc(-c2cc(-c3ncco3)ccc2C)cc1` [Compound 1, N-(2′-Methyl-5′-oxazol-2-yl-biphenyl-4-yl)-acetamide], the half-maximal inhibitory concentration (IC50) is over 500 nM.
Take `CCC(=O)Nc1ccc(-c2cc(-c3ncco3)ccc2C)cc1` [Compound 2, N-(2′-Methyl-5′-oxazol-2-yl-biphenyl-4-yl)-propionamide]: the IC50 was 50 to 100 nM.
The same measure for `CCCC(=O)Nc1ccc(-c2cc(-c3ncco3)ccc2C)cc1` [Compound 3, N-(2′-Methyl-5′-oxazol-2-yl-biphenyl-4-yl)-butyramide]: under 20 nM; for `Cc1ccc(-c2ncco2)cc1-c1ccc(NC(=O)C(C)C)cc1` [Compound 4, N-(2′-Methyl-5′-oxazol-2-yl-biphenyl-4-yl)-isobutyramide]: under 20 nM.
Next, `Cc1ccc(-c2ncco2)cc1-c1ccc(NC(=O)C2CC2)cc1` [Compound 5, Cyclopropanecarboxylic acid (2′-methyl-5′-oxazol-2-yl-biphenyl-4-yl)-amide]: 50 to 100 nM; `Cc1ccc(-c2ncco2)cc1-c1ccc(NC(=O)C2CCC2)cc1` [Compound 6, Cyclobutanecarboxylic acid (2′-methyl-5′-oxazol-2-yl-biphenyl-4-yl)-amide]: 20 to 50 nM.
With `Cc1ccc(-c2ncco2)cc1-c1ccc(NC(=O)C2CCCCN2C)cc1` (centres unmarked) [Compound 8, 1-Methyl-piperidine-2-carboxylic acid (2′-methyl-5′-oxazol-2-yl-biphenyl-4-yl)-amide], the IC50 fell in the range of 100 to 500 nM.
In turn, `CCC(C(=O)Nc1ccc(-c2cc(-c3ncco3)ccc2C)cc1)N(C)C` (centres unmarked) [Compound 9, 2-Dimethylamino-N-(2′-methyl-5′-oxazol-2-yl-biphenyl-4-yl)-butyramide Hydrochloride] came in with an IC50 of over 500 nM.
The same measure for `Cc1ccc(-c2ncco2)cc1-c1ccc(NC(=O)C(N)CC(C)C)cc1` (centres unmarked) [Compound 10, 2-Amino-4-methyl-pentanoic acid (2′-methyl-5′-oxazol-2-yl-biphenyl-4-yl)-amide]: over 500 nM; for `Cc1ccc(-c2ncco2)cc1-c1ccc(NC(=O)CN)cc1` [Compound 11, 2-Amino-N-(2′-methyl-5′-oxazol-2-yl-biphenyl-4-yl)-acetamide]: over 1000 nM; for `Cc1ccc(-c2ncco2)cc1-c1ccc(NC(=O)Cc2ccc(Cl)cc2)cc1` [Compound 35, 2-(4-Chloro-phenyl)-N-(2′-methyl-5′-oxazol-2-yl-biphenyl-4-yl)-acetamide]: 100 to 500 nM.
`Cc1ccc(-c2ncco2)cc1-c1ccc(NC(=O)/C=C/c2ccccc2)cc1` [Compound 48, N-(2′-Methyl-5′-oxazol-2-yl-biphenyl-4-yl)-3-phenyl-acrylamide] showed a half-maximal inhibitory concentration (IC50) of 100 to 500 nM.
`Cc1ccc(-c2ncco2)cc1-c1ccc(NC(=O)C2CCCCC2)cc1` [Compound 106, N-(2′-methyl-5′-(oxazol-2-yl)biphenyl-4-yl)cyclohexanecarboxamide] came in with a half-maximal inhibitory concentration (IC50) of under 20 nM.
With `O=C(Nc1ccc(-c2cc(C(F)(F)F)ccc2Cl)cc1)C1CCCCC1` [Compound 107, N-(2′-chloro-5′-(trifluoromethyl)biphenyl-4-yl)cyclohexanecarboxamide], the IC50 is under 20 nM.
The same measure for `O=C(Nc1ccc(-c2cc(C(F)(F)F)ccc2Cl)cc1)C1CCCC1` [Compound 108, N-(2′-chloro-5′-(trifluoromethyl)biphenyl-4-yl)cyclopentanecarboxamide]: 20 to 50 nM; for `Cc1ccc(-c2ncco2)cc1-c1ccc(NC(=S)Cc2ccc(F)cc2F)cc1` [Compound 124, 2-(2,4-Difluoro-phenyl)-N-(2′-methyl-5′-oxazol-2-yl-biphenyl-4-yl)-thioacetamide]: 50 to 100 nM; for `O=C(Nc1ccc(-c2cc(C(F)(F)F)ccc2Cl)cc1)C1CC1` [Compound 125, N-(2′-chloro-5′-(trifluoromethyl)biphenyl-4-yl)cyclopropanecarboxamide]: 100 to 500 nM.
`O=C(Nc1ccc(-c2cc(C(F)(F)F)ccc2Cl)cc1)C1CCCN1` (centres unmarked) [Compound 126, N-(2′-chloro-5′-(trifluoromethyl)biphenyl-4-yl)pyrrolidine-2-carboxamide] registered an IC50 of over 1000 nM.
Compound `O=C(Nc1ccc(-c2cc(C(F)(F)F)ccc2Cl)cc1)C1CC=CCC1` (centres unmarked) [Compound 127, N-(2′-chloro-5′-(trifluoromethyl)biphenyl-4-yl)cyclohex-3-enecarboxamide] returned an IC50 of 50 to 100 nM.
The compound `CC1CCCCC1C(=O)Nc1ccc(-c2cc(C(F)(F)F)ccc2Cl)cc1` (centres unmarked) [Compound 128, N-(2′-chloro-5′-(trifluoromethyl)biphenyl-4-yl)-2-methylcyclohexanecarboxamide] gave a concentration for half-maximal inhibition (IC50) of 100 to 500 nM.
The compound `O=C(Nc1ccc(-c2cc(C(F)(F)F)ccc2Cl)cc1)C1CCNCC1` [Compound 129, N-(2′-chloro-5′-(trifluoromethyl)biphenyl-4-yl)piperidine-4-carboxamide] had an IC50 of over 1000 nM.
In turn, `O=C(Nc1ccc(-c2cc(C(F)(F)F)ccc2Cl)cc1)C1CC2CCC1C2` (centres unmarked) [Compound 130, N-(2′-chloro-5′-(trifluoromethyl)biphenyl-4-yl)bicyclo[2.2.1]heptane-2-carboxamide] gave an IC50 of 100 to 500 nM.
The compound `O=C(Nc1ccc(-c2cc(C(F)(F)F)ccc2Cl)cc1)C1CC2C=CC1C2` (centres unmarked) [Compound 132, N-(2′-chloro-5′-(trifluoromethyl)biphenyl-4-yl)bicyclo[2.2.1]hept-5-ene-2-carboxamide] had an IC50 of over 500 nM.
The same measure for `CN1CCC(C(=O)Nc2ccc(-c3cc(C(F)(F)F)ccc3Cl)cc2)CC1` [Compound 133, N-(2′-chloro-5′-(trifluoromethyl)biphenyl-4-yl)-1-methylpiperidine-4-carboxamide]: over 1000 nM; for `CN1CCCC1C(=O)Nc1ccc(-c2cc(C(F)(F)F)ccc2Cl)cc1` (centres unmarked) [Compound 134, N-(2′-chloro-5′-(trifluoromethyl)biphenyl-4-yl)-1-methylpyrrolidine-2-carboxamide]: over 1000 nM.
In turn, `CCCCNCc1ccc(-c2cc(-c3ncco3)ccc2C)cc1` [Compound 135, N-((2′-methyl-5′-(oxazol-2-yl)biphenyl-4-yl)methyl)butan-1-amine] came in with an IC50 of over 1000 nM.
`C=CCNCc1ccc(-c2cc(-c3ncco3)ccc2C)cc1` [Compound 136, N-((2′-methyl-5′-(oxazol-2-yl)biphenyl-4-yl)methyl)prop-2-en-1-amine] registered an IC50 of over 1000 nM.
`CCCNCc1ccc(-c2cc(-c3ncco3)ccc2C)cc1` [Compound 137, N-((2′-methyl-5′-(oxazol-2-yl)biphenyl-4-yl)methyl)propan-1-amine] displayed a 50% inhibitory concentration (IC50) of over 1000 nM.
As for `CCCCNc1ccc(-c2cc3c(cc2C)OCO3)cc1` [Compound 141, N-butyl-4-(6-methylbenzo[d][1,3]dioxol-5-yl)aniline], the IC50 was in the range of 100 to 500 nM.
Next, `CCCCNc1ccc(-c2cc(C(=O)OC)ccc2C)cc1` [Compound 142, methyl 4′-(butylamino)-6-methylbiphenyl-3-carboxylate]: 100 to 500 nM; `Cc1ccc(-c2ncco2)cc1-c1ccc(NCC(C)C)cc1` [Compound 144, N-isobutyl-2′-methyl-5′-(oxazol-2-yl)biphenyl-4-amine]: 100 to 500 nM.
Next, `Cc1ccc(-c2ncco2)cc1-c1ccc(NCCO)cc1` [Compound 145, 2-(2′-methyl-5′-(oxazol-2-yl)biphenyl-4-ylamino)ethanol]: over 1000 nM.
Next, `Cc1ccc(-c2ncco2)cc1-c1ccc(NC(=O)N2CCN(C)CC2)cc1` [Compound 146, 4-Methyl-piperazine-1-carboxylic acid (2′-methyl-5′-oxazol-2-yl-biphenyl-4-yl)-amide]: over 1000 nM.
`CCOC(=O)CNc1ccc(-c2cc(-c3ncco3)ccc2C)cc1` [Compound 147, ethyl 2-(2′-methyl-5′-(oxazol-2-yl)biphenyl-4-ylamino)acetate]: the half-maximal inhibitory concentration (IC50) was over 1000 nM.
